In patent US10053431B2, “Tetrahydro-benzodiazepinones” (priority 2013, dated 2018):
Structures can show the parent of a compound that is named as a salt. Where two headings read alike, the source gives them in different places.

Columns and labels:
BIR3 domain of XIAP = BIR3 domain of XIAP (Homo sapiens (Human), UniProt P98170); test: TR-FRET assay for BIR3 (inhibition of binding of XIAP BIR3 domain to SMAC-derived Peptide A)
BIR2 domain of XIAP = BIR2 domain of XIAP (Homo sapiens (Human), UniProt P98170, C202A/C213G); test: TR-FRET assay for BIR2 (inhibition of binding of XIAP BIR2 domain to SMAC-derived Peptide A); conditions: 6x His-tagged BIR2 domain (aa 124-240 of XIAP) 10 nM, Peptide A 20 nM, TR-FRET; read-out: IC50 BIR2
BIR2 domain of XIAP, sequence (P98170 124-240 with tags or gaps C202A/C213G limits assumed): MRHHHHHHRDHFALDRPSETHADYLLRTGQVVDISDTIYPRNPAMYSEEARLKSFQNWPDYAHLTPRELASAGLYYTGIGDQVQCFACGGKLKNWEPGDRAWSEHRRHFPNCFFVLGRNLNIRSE

[1] = 6x His-tagged BIR3 domain (aa 241-356 of XIAP) 10 nM, Peptide A 20 nM, TR-FRET

BIR3 domain of XIAP, sequence (P98170 241-356 with tags or gaps limits assumed): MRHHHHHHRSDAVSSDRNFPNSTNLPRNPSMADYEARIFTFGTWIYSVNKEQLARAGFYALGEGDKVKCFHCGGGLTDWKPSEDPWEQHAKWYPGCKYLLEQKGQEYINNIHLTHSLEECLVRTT

IC50 (BIR3 domain of XIAP; [1]) [µM] | IC50 (BIR2 domain of XIAP) [µM] | SMILES | IC50 (BIR3 domain of XIAP) [µM]
52 | 0.039 | CC(=O)c1ccc(C(=O)N2C[C@H](NC(=O)[C@H](C)N)C(=O)N(Cc3c(OC(F)F)ccc4ccccc34)c3ccccc32)cc1 [Example 69i] | –
> 54.8 | 0.213 | COc1ccc2c(CN3C(=O)[C@@H](NC(=O)[C@H](C)N)CN(C(=O)c4ccc(C(C)=O)cc4)c4ccccc43)cc(=O)oc2c1 [Example 69j] | –
> 54.8 | 0.027 | CC(=O)c1ccc(C(=O)N2C[C@H](NC(=O)[C@H](C)N)C(=O)N(Cc3noc4ccccc34)c3ccccc32)cc1 [Example 69k] | –
> 54.8 | 0.049 | CN[C@@H](C)C(=O)N[C@H]1CN(C(=O)c2ccc(C#N)cc2)c2ccccc2N(Cc2c(OC(F)F)ccc3ccccc23)C1=O [Example 74, (S)—N—((S)-5-(4-Cyanobenzoyl)-1-((2-(difluoromethoxy)naphthalen-1-yl)methyl)-2-oxo-2,3,4,5-tetrahydro-1H-benzo[b][1,4]diazepin-3-yl)-2-(methylamino)propanamide] | –
33.2 | 0.005 | CN[C@@H](C)C(=O)N[C@H]1CN(C(=O)c2ccc(NC(C)=O)cc2)c2ccccc2N(Cc2c(OC)ccc3cc(Br)ccc23)C1=O [Example 76d] | –
3.48 | 0.001 | CC[C@H](NC)C(=O)N[C@H]1CN(C(=O)c2ccc(C(C)=O)cc2)c2ccccc2N(Cc2c(OC)ccc3cc(Br)ccc23)C1=O [Example 79, (S)—N—((S)-5-(4-Acetylbenzoyl)-1-((6-bromo-2-methoxynaphthalen-1-yl)methyl)-2-oxo-2,3,4,5-tetrahydro-1H-benzo[b][1,4]diazepin-3-yl)-2-(methylamino)butanamide hydrochloride] | –

More lines, now with the values behind:

SMILES | IC50 (BIR3 domain of XIAP; [1]) [µM] | IC50 (BIR2 domain of XIAP) [µM] | IC50 (BIR3 domain of XIAP) [µM]
CN[C@@H](C)C(=O)N[C@H]1CN(C(=O)c2ccc(NC(=O)OCC3c4ccccc4-c4ccccc43)cc2)c2ccccc2N(Cc2c(OC)ccc3cc(C(=O)OC)ccc23)C1=O [Example 55, 5-[(S)-5-[4-(9H-Fluoren-9-ylmethoxycarbonylamino)-benzoyl]-3-((S)-2-methylamino-propionylamino)-2-oxo-2,3,4,5-tetrahydro-benzo[b][1,4]diazepin-1-ylmethyl]-6-methoxy-naphthalene-2-carboxylic acid methyl ester hydrochloride] | > 54.8 | 0.022 | –
CN[C@@H](C)C(=O)N[C@H]1CN(C(=O)c2ccc(N)cc2)c2ccccc2N(Cc2c(OC)ccc3cc(C(=O)O)ccc23)C1=O [Example 57, 5-(((S)-5-(4-aminobenzoyl)-3-((S)-2-(methylamino)propanamido)-2-oxo-2,3,4,5-tetrahydro-1H-benzo[b][1,4]diazepin-1-yl)methyl)-6-methoxy-2-naphthoic acid hydrochloride] | 20.8 | 0.007 | –
CN[C@@H](C)C(=O)N[C@H]1CN2CCNC(=O)c3ccc4c(c(OC)ccc4c3)CN(C1=O)c1ccccc12 [Example 59, Cyclic-5-[(S)-5-(2-Amino-ethyl)-3-((S)-2-methylamino-propionylamino)-2-oxo-2,3,4,5-tetrahydro-benzo[b][1,4]diazepin-1-ylmethyl]-6-methoxy-naphthalene-2-carboxylic amide hydrochloride] | 31.4 | 3.78 | –
CN[C@@H](C)C(=O)N[C@H]1CN(C(=O)CCCCC(=O)O)c2ccccc2N(Cc2c(C)ccc3ccccc23)C1=O [Example 60, 6-((S)-3-((S)-2-(methylamino)propanamido)-5-((2-methylnaphthalen-1-yl)methyl)-4-oxo-2,3,4,5-tetrahydro-1H-benzo[b][1,4]diazepin-1-yl)-6-oxohexanoic acid hydrochloride] | > 54.8 | 0.166 | –
CN[C@@H](C)C(=O)N[C@H]1CN(C(=O)CCN)c2ccccc2N(Cc2c(OC)ccc3cc(C(=O)OC)ccc23)C1=O [Example 61, 5-[(S)-5-(3-Amino-propionyl)-3-((S)-2-methylamino-propionylamino)-2-oxo-2,3,4,5-tetrahydro-benzo[b][1,4]diazepin-1-ylmethyl]-6-methoxy-naphthalene-2-carboxylic acid methyl ester hydrochloride] | > 54.8 | 0.072 | –
CN[C@@H](C)C(=O)N[C@H]1CN2C(=O)CCNC(=O)c3ccc4c(c(OC)ccc4c3)CN(C1=O)c1ccccc12 [Example 63, Cyclic-5-[(S)-5-(3-Amino-propionyl)-3-((S)-2-methylamino-propionylamino)-2-oxo-2,3,4,5-tetrahydro-benzo[b][1,4]diazepin-1-ylmethyl]-6-methoxy-naphthalene-2-carboxylic amide hydrochloride] | 43 | 0.019 | –
COc1ccc2ccccc2c1CN1C(=O)[C@@H](NC(=O)[C@H](C)N)CN(C(=O)c2ccc(N)cc2)c2ccccc21 [Example 65, (S)-2-amino-N—((S)-5-(4-aminobenzoyl)-1-((2-methoxynaphthalen-1-yl)methyl)-2-oxo-2,3,4,5-tetrahydro-1H-benzo[b][1,4]diazepin-3-yl)propanamide] | 23.6 | 0.007 | –
CN[C@@H](C)C(=O)N[C@H]1CN(C(=O)c2ccc(N)cc2)c2ccccc2N(Cc2c(C)ccc3ccccc23)C1=O [Example 67, (S)—N—((S)-5-(4-aminobenzoyl)-1-((2-methylnaphthalen-1-yl)methyl)-2-oxo-2,3,4,5-tetrahydro-1H-benzo[b][1,4]diazepin-3-yl)-2-(methylamino)propanamide hydrochloride] | > 54.8 | 0.022 | –
CN[C@@H](C)C(=O)N[C@H]1CN(C(=O)c2ccc(C(C)=O)cc2)c2ccccc2N(Cc2noc3cc(Br)ccc23)C1=O [Example 69e] | 50.3 | 0.049 | –
CN[C@@H](C)C(=O)N[C@H]1CN(C(=O)c2ccc(C(C)=O)cc2)c2ccccc2N(Cc2c(OC)ccc3ccccc23)C1=O [Example 69g] | 42.5 | 0.011 | –
CC(=O)c1ccc(C(=O)N2C[C@H](NC(=O)[C@H](C)N)C(=O)N(Cc3c(OCC(F)(F)F)ccc4ccccc34)c3ccccc32)cc1 [Example 69h] | 30.3 | 0.02 | –
CN[C@@H](C)C(=O)N[C@H]1CN(C(=O)c2ccc(N)cc2)c2ccccc2N(Cc2noc3ccccc23)C1=O [Example 71, (S)—N—((S)-5-(4-Aminobenzoyl)-1-(benzo[d]isoxazol-3-ylmethyl)-2-oxo-2,3,4,5-tetrahydro-1H-benzo[b][1,4]diazepin-3-yl)-2-(methylamino)propanamide hydrochloride] | > 54.8 | 0.064 | –
CN[C@@H](C)C(=O)N[C@H]1CN(Cc2ccc(C#N)cc2)c2ccccc2N(Cc2c(OC)ccc3cc(Br)ccc23)C1=O [Example 78, (S)—N—((S)-1-((6-Bromo-2-methoxynaphthalen-1-yl)methyl)-5-(4-cyanobenzyl)-2-oxo-2,3,4,5-tetrahydro-1H-benzo[b][1,4]diazepin-3-yl)-2-(methylamino)propanamide trifluoroacetate] | 17.1 | 0.03 | –
CCN[C@@H](C)C(=O)N[C@H]1CN(C(=O)c2ccc(C(C)=O)cc2)c2ccccc2N(Cc2c(OC)ccc3cc(Br)ccc23)C1=O [Example 80, (S)—N—((S)-5-(4-Acetylbenzoyl)-1-((6-bromo-2-methoxynaphthalen-1-yl)methyl)-2-oxo-2,3,4,5-tetrahydro-1H-benzo[b][1,4]diazepin-3-yl)-2-(ethylamino)propanamide hydrochloride] | – | 0.014 | > 54.8
